{"source": "paper PMC7490372", "about": "“Structural bases of IMiD selectivity that emerges by 5-hydroxythalidomide” (Nature Communications, 2020)", "biological_target": "T1, cereblon (CRBN) (Homo sapiens, UniProt Q96SW2)", "T1 construct": "biotinylated CRBN (wheat cell-free); with SALL4", "T1 sequence (Q96SW2 whole entry)": "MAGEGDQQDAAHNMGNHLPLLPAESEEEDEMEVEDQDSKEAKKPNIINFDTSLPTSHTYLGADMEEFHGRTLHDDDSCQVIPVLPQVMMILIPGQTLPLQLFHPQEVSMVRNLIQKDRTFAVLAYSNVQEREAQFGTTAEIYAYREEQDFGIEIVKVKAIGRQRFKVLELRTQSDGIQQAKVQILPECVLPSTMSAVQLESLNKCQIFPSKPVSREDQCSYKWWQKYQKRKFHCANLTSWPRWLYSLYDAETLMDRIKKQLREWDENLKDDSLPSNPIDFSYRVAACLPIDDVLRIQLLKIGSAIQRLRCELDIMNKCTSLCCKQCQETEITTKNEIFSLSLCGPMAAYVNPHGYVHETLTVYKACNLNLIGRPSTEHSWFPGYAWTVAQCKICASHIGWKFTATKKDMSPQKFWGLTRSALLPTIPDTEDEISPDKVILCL", "T1 sequence (Q9UJQ4 whole entry partner)": "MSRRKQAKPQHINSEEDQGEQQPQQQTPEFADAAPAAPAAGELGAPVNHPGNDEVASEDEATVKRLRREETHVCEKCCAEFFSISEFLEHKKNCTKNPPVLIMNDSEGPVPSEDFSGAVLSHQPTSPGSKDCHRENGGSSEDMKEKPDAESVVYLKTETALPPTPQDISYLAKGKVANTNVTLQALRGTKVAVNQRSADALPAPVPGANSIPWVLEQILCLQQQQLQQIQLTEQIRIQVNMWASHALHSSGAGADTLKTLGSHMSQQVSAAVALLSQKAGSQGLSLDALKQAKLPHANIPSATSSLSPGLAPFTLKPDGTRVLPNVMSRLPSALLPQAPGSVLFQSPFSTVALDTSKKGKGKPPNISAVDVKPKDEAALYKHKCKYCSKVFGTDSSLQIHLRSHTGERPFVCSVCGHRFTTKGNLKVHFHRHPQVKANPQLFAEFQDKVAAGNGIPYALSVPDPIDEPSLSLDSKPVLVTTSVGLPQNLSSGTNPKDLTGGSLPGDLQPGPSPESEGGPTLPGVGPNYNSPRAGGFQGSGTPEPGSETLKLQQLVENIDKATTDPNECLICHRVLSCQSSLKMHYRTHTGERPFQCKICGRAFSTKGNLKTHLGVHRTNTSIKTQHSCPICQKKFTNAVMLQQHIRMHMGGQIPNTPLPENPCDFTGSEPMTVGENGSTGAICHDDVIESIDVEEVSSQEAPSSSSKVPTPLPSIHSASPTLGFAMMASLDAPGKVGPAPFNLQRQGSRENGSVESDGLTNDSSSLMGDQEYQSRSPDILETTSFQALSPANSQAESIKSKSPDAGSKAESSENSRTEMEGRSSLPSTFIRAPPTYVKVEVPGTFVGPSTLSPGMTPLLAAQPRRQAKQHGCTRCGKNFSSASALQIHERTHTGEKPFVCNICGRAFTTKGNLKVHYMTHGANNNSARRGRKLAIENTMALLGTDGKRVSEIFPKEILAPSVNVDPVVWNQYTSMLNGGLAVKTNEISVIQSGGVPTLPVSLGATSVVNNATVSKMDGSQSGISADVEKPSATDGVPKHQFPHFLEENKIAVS", "assay": "AlphaScreen-based ternary complex formation, dose-dependent, in cell-free translation mixtures", "data": [{"smiles": "Nc1c(O)ccc2c1C(=O)N(C1CCC(=O)NC1=O)C2=O", "note": "(stereo not shown) [5HP, 5-hydroxypomalidomide]", "values": [{"measurement": "AlphaScreen-based ternary complex formation, dose-dependent, in cell-free transl", "value": "Dose-dependent interaction of CRBN with SALL4 (left) and IKZF1 (right), as observed with the titration of racemate, Pom, and 5HP"}]}]}
